Target: T1, DNA gyrase (Escherichia coli, UniProt P0AES6)
T1 construct: gene gyrB; with DNA gyrase subunit A (GyrA)
Test: DNA supercoiling inhibition assay (Inspiralis E. coli gyrase microplate kit, agarose gel)
Format: biochemical

Compound: NN1C=CCCC1P(=O)(Oc1ccccc1)Oc1ccccc1 (stereo not shown) [2a, cyclic diphenylphosphonate 2a]
- IC50: 12 µM
